Experimental data taken from patent US9914730B2, “Azaquinazoline inhibitors of Atypical protein Kinase C” (Ignyta, Inc., priority 2012, dated 2018).

What follows are compounds tested against T1, full-length human PKCι (Homo sapiens, UniProt P41743) (assay: PKCι IC50 IMAP assay, full-length PKCι at 150 μM ATP). Conditions: read-out: IC50 in IMAP assay against full length PKCi at 150 μM ATP.
T1 construct: Recombinant, full-length human PKCι expressed in Sf21 insect cells is also commercially available; purchased; host or cells: Sf21 insect cells
T1 sequence (P41743 1-596): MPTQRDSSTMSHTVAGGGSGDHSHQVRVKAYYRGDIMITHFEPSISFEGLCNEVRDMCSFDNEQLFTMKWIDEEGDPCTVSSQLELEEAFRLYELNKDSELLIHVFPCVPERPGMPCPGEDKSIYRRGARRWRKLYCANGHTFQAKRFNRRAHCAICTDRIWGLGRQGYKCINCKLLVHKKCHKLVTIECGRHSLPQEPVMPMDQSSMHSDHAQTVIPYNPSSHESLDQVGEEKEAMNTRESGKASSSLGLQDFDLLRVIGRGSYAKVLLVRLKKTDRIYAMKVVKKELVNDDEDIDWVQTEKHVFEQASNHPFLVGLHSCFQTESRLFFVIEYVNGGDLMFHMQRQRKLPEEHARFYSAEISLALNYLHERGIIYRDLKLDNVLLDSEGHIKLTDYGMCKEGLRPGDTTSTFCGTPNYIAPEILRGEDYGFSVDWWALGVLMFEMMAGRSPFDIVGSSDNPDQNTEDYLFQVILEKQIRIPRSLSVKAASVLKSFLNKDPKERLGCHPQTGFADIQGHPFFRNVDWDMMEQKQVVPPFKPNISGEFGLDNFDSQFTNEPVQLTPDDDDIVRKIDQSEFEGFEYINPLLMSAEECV
Type: biochemical
Method in brief: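 Phosphorylation of a 5FAM-tagged PKCε pseudopeptide-derived substrate (100 nM) by full-length recombinant human PKCι was monitored by IMAP fluorescence polarisation. ATP was held at 150 μM, five times its apparent KM, with 60 min room-temperature incubation.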

IC50, < 100 nM:
CN1CCN(c2cccc(Nc3cc(-c4nc(N5CCC(O)CC5)c5c(C6CC6)cncc5n4)ccn3)c2)CC1 [Example 688, 1-(5-Cyclopropyl-2-{2-[3-(4-methyl-piperazin-1-yl)-phenylamno]-pyridin-4-yl}-pyrido[3,4-d]pyrimidin-4-yl)-piperidin-4-ol]
Fc1cc(-c2nc(N3CCNCC3)c3c(C4CC4)cncc3n2)ccn1 [Example 689, 5-Cyclopropyl-2-(2-fluoro-pyridin-4-yl)-4-piperazin-1-yl-pyrido[3,4-d]pyrimidine]
NC1CCN(c2nc(-c3ccnc(Nc4c(F)cccc4F)c3)nc3cncc(C4CC4)c23)CC1 [Example 690, {4-[4-(4-Amino-piperidin-1-yl)-5-cyclopropyl-pyrido[3,4-d]pyrimidin-2-yl]-pyridin-2-yl}-(2,6-difluoro-phenyl)-amine]
C[C@H]1CN(c2nc(-c3ccnc(Nc4ccccc4F)c3)nc3cncc(C4CC4)c23)CCN1 [Example 691, {4-[5-Cyclopropyl-4-((S)-3-methyl-piperazin-1-yl)-pyrido[3,4-d]pyrimidin-2-yl]-pyridin-2-yl}-(2-fluoro-phenyl)-amine]
C[C@H]1CN(c2nc(-c3ccnc(Nc4c(F)cccc4F)c3)nc3cncc(C4CC4)c23)CCN1 [Example 692, {4-[5-Cyclopropyl-4-((S)-3-methyl-piperazin-1-yl)-pyrido[3,4-d]pyrimidin-2-yl]-pyridin-2-yl}-(2,6-difluoro-phenyl)-amine]
C[C@H]1CN(c2nc(-c3ccnc(Nc4ccc(F)cc4)c3)nc3cncc(C4CC4)c23)CCN1 [Example 693, {4-[5-Cyclopropyl-4-((S)-3-methyl-piperazin-1-yl)-pyrido[3,4-d]pyrimidin-2-yl]-pyridin-2-yl}-(4-fluoro-phenyl)-amine]
C[C@H]1CN(c2nc(-c3ccnc(Nc4nc(F)ccc4F)c3)nc3cncc(C4CC4)c23)CCN1 [Example 694, {4-[5-Cyclopropyl-4-((S)-3-methyl-piperazin-1-yl)-pyrido[3,4-d]pyrimidin-2-yl]-pyridin-2-yl}-(3,6-difluoro-pyridin-2-yl)-amine]
NCC1CCN(c2nc(-c3ccnc(Nc4c(F)cccc4F)c3)nc3cncc(C4CC4)c23)CC1 [Example 696, {4-[4-(4-Aminomethyl-piperidin-1-yl)-5-cyclopropyl-pyrido[3,4-d]pyrimidin-2-yl]-pyridin-2-yl}-(2,6-difluoro-phenyl)-amine]
Fc1ccc(Nc2cc(-c3nc(N4CCCNCC4)c4c(C5CC5)cncc4n3)ccn2)cc1 [Example 699, [4-(5-Cyclopropyl-4-[1,4]diazepan-1-yl-pyrido[3,4-d]pyrimidin-2-yl)-pyridin-2-yl]-(4-fluoro-phenyl)-amine]
c1cc(-c2nc(N3CCNCC3)c3c(C4CC4)cncc3n2)cc(NC23CC(C2)C3)n1 [Example 700, Bicyclo[1.1.1]pent-1-yl-[4-(5-cyclopropyl-4-piperazin-1-yl-pyrido[3,4-d]pyrimidin-2-yl)-pyridin-2-yl]-amine]
F[C@H]1C[C@@H](Nc2cc(-c3nc(N4CCNCC4)c4c(C5CC5)cncc4n3)ccn2)C1 [Example 703, (+/−)cis-[4-(5-Cyclopropyl-4-piperazin-1-yl-pyrido[3,4-d]pyrimidin-2-yl)-pyridin-2-yl]-(3-fluoro-cyclobutyl)-amine]
Fc1cnc(Nc2cc(-c3nc(N4CCNCC4)c4c(C5CC5)cncc4n3)ccn2)c(F)c1 [Example 704, [4-(5-Cyclopropyl-4-piperazin-1-yl-pyrido[3,4-d]pyrimidin-2-yl)-pyridin-2-yl]-(3,5-difluoro-pyridin-2-yl)-amine]
Fc1cncc(F)c1Nc1cc(-c2nc(N3CCNCC3)c3c(C4CC4)cncc3n2)ccn1 [Example 705, [4-(5-Cyclopropyl-4-piperazin-1-yl-pyrido[3,4-d]pyrimidin-2-yl)-pyridin-2-yl]-(3,5-difluoro-pyridin-4-yl)-amine]
c1ccc2c(c1)OCCC2Nc1cc(-c2nc(N3CCNCC3)c3c(C4CC4)cncc3n2)ccn1 (centres unmarked) [Example 712, Chroman-4-yl-[4-(5-cyclopropyl-4-piperazin-1-yl-pyrido[3,4-d]pyrimidin-2-yl)-pyridin-2-yl]-amine]
CC(C)c1ccc(Nc2cc(-c3nc(N4CCNCC4)c4c(C5CC5)cncc4n3)ccn2)c(F)c1 [Example 714, [4-(5-Cyclopropyl-4-piperazin-1-yl-pyrido[3,4-d]pyrimidin-2-yl)-pyridin-2-yl]-(2-fluoro-4-isopropyl-phenyl)-amine]

IC50, 100 to 1000 nM:
O=C(NCCO)C1CCN(c2nc(-c3ccnc(Nc4c(F)cccc4F)c3)nc3cncc(C4CC4)c23)CC1 [Example 685, 1-{5-Cyclopropyl-2-[2-(2,6-difluoro-phenylamino)-pyridin-4-yl]-pyrido[3,4-d]pyrimidin-4-yl}-piperidine-4-carboxylic acid (2-hydroxy-ethyl)-amide]
CN(C)C(=O)C1CCN(c2nc(-c3ccnc(Nc4c(F)cccc4F)c3)nc3cncc(C4CC4)c23)CC1 [Example 686, 1-{5-Cyclopropyl-2-[2-(2,6-difluoro-phenylamino)-pyridin-4-yl]-pyrido[3,4-d]pyrimidin-4-yl}-piperidine-4-carboxylic acid dimethylamide]
CN1CCN(c2cccc(Nc3cc(-c4nc(N5CCN(C(N)=O)CC5)c5c(C6CC6)cncc5n4)ccn3)c2)CC1 [Example 687, 4-(5-Cyclopropyl-2-{2-[3-(4-methyl-piperazin-1-yl)-phenylamino]-pyridin-4-yl}-pyrido[3,4-d]pyrimidin-4-yl)-piperazine-1-carboxylic acid amide]
c1ccc(Nc2cc(-c3nc(NC[C@@H]4CCCN4)c4c(C5CC5)cncc4n3)ccn2)cc1 [Example 697, [5-Cyclopropyl-2-(2-phenylamino-pyridin-4-yl)-pyrido[3,4-d]pyrimidin-4-yl]-(S)-1-pyrrolidin-2-ylmethyl-amine]
Fc1cccc(F)c1Nc1cc(-c2nc(NC[C@@H]3CCCN3)c3c(C4CC4)cncc3n2)ccn1 [Example 698, {5-Cyclopropyl-2-[2-(2,6-difluoro-phenylamino)-pyridin-4-yl]-pyrido[3,4-d]pyrimidin-4-yl}-(S)-1-pyrrolidin-2-ylmethyl-amine]
Fc1cccc(F)c1Nc1cc(-c2nc(N3CCCNCC3)c3c(C4CC4)cncc3n2)ccn1 [Example 702, [4-(5-Cyclopropyl-4-[1,4]diazepan-1-yl-pyrido[3,4-d]pyrimidin-2-yl)-pyridin-2-yl]-(2,6-difluoro-phenyl)-amine]
FC(F)(F)C(Nc1cc(-c2nc(N3CCNCC3)c3c(C4CC4)cncc3n2)ccn1)c1ccccc1 (centres unmarked) [Example 706, [4-(5-Cyclopropyl-4-piperazin-1-yl-pyrido[3,4-d]pyrimidin-2-yl)-pyridin-2-yl]-(2,2,2-trifluoro-1-phenyl-ethyl)-amine]
NC1CCN(c2nc(-c3ccnc(Nc4c(F)cccc4F)c3)nc3cncc(C4CC4)c23)C1 (centres unmarked) [Example 708, {4-[4-(3-Amino-pyrrolidin-1-yl)-5-cyclopropyl-pyrido[3,4-d]pyrimidin-2-yl]-pyridin-2-yl}-(2,6-difluoro-phenyl)-amine]
O=C(O)Cc1ccc(Nc2cc(-c3nc(N4CCNCC4)c4c(C5CC5)cncc4n3)ccn2)cc1 [Example 709, {4-[4-(5-Cyclopropyl-4-piperazin-1-yl-pyrido[3,4-d]pyrimidin-2-yl)-pyridin-2-ylamino]-phenyl}-acetic acid]
CN1CCN(c2cccc(Nc3cc(-c4nc(N5CCCCC5)c5c(C6CC6)cncc5n4)ccn3)c2)CC1 [Example 710]
N#Cc1cccc(Nc2cc(-c3nc(N4CC[C@H](O)[C@H](O)C4)c4c(C5CC5)cncc4n3)ccn2)c1 [Example 711, 3-{4-[5-Cyclopropyl-4-((3R,4S)-3,4-dihydroxy-piperidin-1-yl)-pyrido[3,4-d]pyrimidin-2-yl]-pyridin-2-ylamino}-benzonitrile]
CC(=O)NC1CCN(c2nc(-c3ccnc(Nc4c(F)cccc4F)c3)nc3cncc(C4CC4)c23)C1 (centres unmarked) [Example 713, N-(1-{5-Cyclopropyl-2-[2-(2,6-difluoro-phenylamino)-pyridin-4-yl]-pyrido[3,4-d]pyrimidin-4-yl}-pyrrolidin-3-yl)-acetamide]

IC50, 10000 to 40000 nM:
Fc1c(-c2nc(N3CCNCC3)c3c(C4CC4)cncc3n2)ccnc1Nc1ccccc1 [Example 701, [4-(5-Cyclopropyl-4-piperazin-1-yl-pyrido[3,4-d]pyrimidin-2-yl)-3-fluoro-pyridin-2-yl]-phenyl-amine]
CNC(=O)C1CCCN(c2nc(-c3ccnc(Nc4c(F)cccc4F)c3)nc3cncc(C4CC4)c23)C1 (centres unmarked) [Example 707, 1-{5-Cyclopropyl-2-[2-(2,6-difluoro-phenylamino)-pyridin-4-yl]-pyrido[3,4-d]pyrimidin-4-yl}-piperidine-3-carboxylic acid methylamide]
